Measured values taken from patent US20240269139A1, “COMPOUNDS FOR TARGETED PROTEIN DEGRADATION OF KINASES” (DANA-FARBER CANCER INSTITUTE, INC., priority 2020, published 2024).
Where two headings read alike, the source gives them in different places.

Assays:
Type in all cases: cell-based
[1] = target: T1, protein kinases (human kinome) (Homo sapiens, UniProt O14965)
T1 sequence (O14965 1-403): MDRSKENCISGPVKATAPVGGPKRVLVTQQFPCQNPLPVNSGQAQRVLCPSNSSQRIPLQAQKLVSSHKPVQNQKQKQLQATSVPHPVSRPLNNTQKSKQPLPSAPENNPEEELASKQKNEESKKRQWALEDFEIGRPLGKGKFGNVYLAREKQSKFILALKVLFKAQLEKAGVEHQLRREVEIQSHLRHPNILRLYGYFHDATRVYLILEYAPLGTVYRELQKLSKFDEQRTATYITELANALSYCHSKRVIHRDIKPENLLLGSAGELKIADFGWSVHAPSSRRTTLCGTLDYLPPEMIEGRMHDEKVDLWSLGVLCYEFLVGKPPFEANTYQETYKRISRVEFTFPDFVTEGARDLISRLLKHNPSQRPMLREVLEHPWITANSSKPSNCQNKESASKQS

[2] = target: protein kinases (human kinome) (Homo sapiens, UniProt P50750); settings: experiment wp164
protein kinases (human kinome) (Homo sapiens, UniProt P50750), sequence (P50750 whole entry): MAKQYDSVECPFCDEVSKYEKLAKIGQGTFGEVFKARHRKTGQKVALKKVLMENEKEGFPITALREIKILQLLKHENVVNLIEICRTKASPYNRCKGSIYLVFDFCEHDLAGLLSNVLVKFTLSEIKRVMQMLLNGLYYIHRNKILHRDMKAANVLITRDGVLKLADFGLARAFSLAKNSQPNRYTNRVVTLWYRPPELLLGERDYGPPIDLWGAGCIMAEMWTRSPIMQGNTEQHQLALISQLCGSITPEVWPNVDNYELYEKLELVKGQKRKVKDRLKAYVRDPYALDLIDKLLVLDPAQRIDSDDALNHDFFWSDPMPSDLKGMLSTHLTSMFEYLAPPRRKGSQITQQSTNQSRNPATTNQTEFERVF

[3] = target: protein kinases (human kinome) (Homo sapiens, UniProt Q00534); settings: for logFC CDK6: CDK6 (Q00534), direction down; for logFC of CDK6 (Q00534): down
protein kinases (human kinome) (Homo sapiens, UniProt Q00534), sequence (Q00534 whole entry): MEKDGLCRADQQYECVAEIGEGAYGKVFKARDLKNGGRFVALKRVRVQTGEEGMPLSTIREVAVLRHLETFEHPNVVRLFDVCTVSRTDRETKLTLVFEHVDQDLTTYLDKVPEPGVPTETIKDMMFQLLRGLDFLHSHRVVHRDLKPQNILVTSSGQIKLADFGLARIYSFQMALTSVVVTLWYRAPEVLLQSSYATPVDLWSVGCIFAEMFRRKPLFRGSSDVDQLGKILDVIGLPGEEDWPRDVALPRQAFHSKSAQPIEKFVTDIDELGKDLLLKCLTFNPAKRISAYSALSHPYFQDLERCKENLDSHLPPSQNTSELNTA

[4] = system: protein kinases (human kinome)
[5] = target: protein kinases (human kinome) (Homo sapiens, UniProt Q9HBU6); settings: protein ETNK1 (Q9HBU6-1); experiment wp088; down
protein kinases (human kinome) (Homo sapiens, UniProt Q9HBU6), sequence (Q9HBU6 whole entry): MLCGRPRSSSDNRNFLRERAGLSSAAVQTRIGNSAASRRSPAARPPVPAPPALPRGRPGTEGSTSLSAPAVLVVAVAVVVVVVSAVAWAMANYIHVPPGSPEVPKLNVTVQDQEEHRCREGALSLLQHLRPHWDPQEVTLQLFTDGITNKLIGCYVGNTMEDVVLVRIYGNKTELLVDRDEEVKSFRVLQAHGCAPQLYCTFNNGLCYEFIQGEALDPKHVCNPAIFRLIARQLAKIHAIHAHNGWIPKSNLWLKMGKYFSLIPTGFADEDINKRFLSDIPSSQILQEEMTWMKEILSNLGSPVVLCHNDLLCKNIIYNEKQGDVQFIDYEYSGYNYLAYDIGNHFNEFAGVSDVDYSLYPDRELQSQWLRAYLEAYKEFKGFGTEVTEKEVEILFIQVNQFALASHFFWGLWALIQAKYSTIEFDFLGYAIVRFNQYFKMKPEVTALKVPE

[6] = target: T2, protein kinases (human kinome) (Homo sapiens, UniProt P33981); settings: experiment wp164
T2 sequence (P33981 1-857): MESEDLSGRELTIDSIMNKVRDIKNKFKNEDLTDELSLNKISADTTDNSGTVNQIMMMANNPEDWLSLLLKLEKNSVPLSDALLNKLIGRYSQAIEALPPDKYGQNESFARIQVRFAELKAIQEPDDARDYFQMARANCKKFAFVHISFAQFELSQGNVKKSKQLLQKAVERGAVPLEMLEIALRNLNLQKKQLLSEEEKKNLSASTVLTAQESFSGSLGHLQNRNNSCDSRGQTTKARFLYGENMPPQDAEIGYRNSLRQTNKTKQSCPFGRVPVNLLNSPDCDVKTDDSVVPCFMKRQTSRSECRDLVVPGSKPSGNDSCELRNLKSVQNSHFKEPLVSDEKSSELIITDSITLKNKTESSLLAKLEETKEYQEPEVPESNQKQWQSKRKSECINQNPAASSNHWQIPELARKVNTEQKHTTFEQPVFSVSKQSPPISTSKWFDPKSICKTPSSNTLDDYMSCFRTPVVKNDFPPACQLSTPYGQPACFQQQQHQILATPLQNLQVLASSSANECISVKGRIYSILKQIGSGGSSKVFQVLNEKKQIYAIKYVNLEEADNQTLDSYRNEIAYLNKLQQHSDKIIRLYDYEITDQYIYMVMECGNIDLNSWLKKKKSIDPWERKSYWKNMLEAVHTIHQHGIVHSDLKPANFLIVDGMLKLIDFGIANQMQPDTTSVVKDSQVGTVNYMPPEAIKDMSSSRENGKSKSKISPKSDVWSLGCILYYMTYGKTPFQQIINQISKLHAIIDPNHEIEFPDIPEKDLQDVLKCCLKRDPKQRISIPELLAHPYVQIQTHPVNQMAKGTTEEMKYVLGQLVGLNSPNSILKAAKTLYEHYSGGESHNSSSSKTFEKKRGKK

[7] = target: protein kinases (human kinome) (Homo sapiens, UniProt Q96GD4); settings: experiment wp164
protein kinases (human kinome) (Homo sapiens, UniProt Q96GD4), sequence (Q96GD4 whole entry): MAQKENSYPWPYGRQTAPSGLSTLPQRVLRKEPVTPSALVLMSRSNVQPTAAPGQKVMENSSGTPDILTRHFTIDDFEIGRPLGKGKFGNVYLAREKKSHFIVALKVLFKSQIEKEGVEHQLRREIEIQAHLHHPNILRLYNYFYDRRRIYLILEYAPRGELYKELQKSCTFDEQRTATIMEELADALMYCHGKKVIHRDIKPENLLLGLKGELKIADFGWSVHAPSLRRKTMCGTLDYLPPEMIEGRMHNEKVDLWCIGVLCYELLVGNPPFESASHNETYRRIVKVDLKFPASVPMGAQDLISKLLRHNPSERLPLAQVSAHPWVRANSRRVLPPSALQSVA

[8] = target: T3, protein kinases (human kinome) (Homo sapiens, UniProt Q9UEE5); settings: STK17A Q9UEE5; experiment wp088
T3 sequence (Q9UEE5 1-414): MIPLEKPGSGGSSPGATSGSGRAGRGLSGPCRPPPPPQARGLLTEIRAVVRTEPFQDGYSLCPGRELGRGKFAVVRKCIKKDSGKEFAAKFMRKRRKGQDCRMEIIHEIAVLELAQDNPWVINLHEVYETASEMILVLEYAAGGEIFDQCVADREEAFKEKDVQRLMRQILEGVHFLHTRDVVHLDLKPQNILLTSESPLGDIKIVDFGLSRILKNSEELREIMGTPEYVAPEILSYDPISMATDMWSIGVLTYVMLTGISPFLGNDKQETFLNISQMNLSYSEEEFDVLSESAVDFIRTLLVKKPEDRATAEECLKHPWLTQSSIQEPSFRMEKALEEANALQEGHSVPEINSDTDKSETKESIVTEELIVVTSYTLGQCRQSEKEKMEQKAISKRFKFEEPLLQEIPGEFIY

[9] = target: protein kinases (human kinome) (Homo sapiens, UniProt Q2M2I8)
protein kinases (human kinome) (Homo sapiens, UniProt Q2M2I8), sequence (Q2M2I8 whole entry): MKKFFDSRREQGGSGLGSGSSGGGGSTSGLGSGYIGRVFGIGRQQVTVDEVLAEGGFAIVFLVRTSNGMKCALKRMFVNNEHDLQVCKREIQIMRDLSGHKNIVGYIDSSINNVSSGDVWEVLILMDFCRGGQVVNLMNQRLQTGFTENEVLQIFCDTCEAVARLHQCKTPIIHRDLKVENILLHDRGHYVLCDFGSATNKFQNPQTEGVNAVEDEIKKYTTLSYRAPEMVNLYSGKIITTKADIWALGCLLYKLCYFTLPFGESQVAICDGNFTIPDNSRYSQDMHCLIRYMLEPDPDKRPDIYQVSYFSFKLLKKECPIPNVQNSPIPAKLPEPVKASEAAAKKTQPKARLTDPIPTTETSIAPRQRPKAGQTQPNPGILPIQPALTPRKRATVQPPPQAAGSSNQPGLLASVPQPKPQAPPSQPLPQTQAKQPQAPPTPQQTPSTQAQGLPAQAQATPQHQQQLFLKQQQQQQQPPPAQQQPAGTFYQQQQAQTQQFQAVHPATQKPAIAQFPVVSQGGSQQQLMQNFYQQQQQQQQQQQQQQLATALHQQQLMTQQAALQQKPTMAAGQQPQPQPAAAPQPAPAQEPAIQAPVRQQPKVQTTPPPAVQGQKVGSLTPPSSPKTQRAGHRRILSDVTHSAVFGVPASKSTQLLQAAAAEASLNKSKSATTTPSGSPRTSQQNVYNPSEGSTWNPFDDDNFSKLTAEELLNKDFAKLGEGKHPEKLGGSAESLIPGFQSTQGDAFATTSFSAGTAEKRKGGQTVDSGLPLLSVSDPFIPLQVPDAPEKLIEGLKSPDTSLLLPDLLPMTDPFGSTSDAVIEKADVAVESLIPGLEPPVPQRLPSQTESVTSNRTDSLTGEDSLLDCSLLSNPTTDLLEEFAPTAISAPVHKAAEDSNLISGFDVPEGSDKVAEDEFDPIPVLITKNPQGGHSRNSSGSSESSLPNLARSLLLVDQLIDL

[10] = AURKB Q96GD4-5, experiment wp088

O=C(CCCCCCNC(=O)COc1cccc2c1C(=O)N(C1CCC(=O)NC1=O)C2=O)NCCOc1ccc(Nc2ncc3ccc(=O)n(C4CC5CCC4C5)c3n2)cc1 (centres unmarked) [SB1.G.194]
logFC AURKA (O14965) ([1]; experiment wp088): −1.175
logFC AURKA (O14965) ([1]; experiment wp164): −2.035
logFC CDK9 (P50750) [2]: −0.8391
logFC of CDK9 (P50750) [2]: −0.8391
logFC CDK6 ([3]; experiment wp088): −0.4731
logFC CDK6 ([3]; experiment wp164): −1.23
logFC of CDK6 (Q00534) ([3]; Experiment wp088): −0.4731
logFC of CDK6 (Q00534) ([3]; Experiment wp164): −1.23
logFC [4, 10]: −0.3846
logFC AURKB [4, 10]: −0.3846
logFC FGFR2 (P21802-11) ([4]; Experiment wp088, direction of change down): −0.4804
logFC FGFR2 ([4]; protein FGFR2 (P21802-11), experiment wp088, down): −0.4804
logFC ETNK1 [5]: −0.3662
logFC TTK ([6]; Accession P33981): −0.4279
logFC TTK (P33981) [6]: −0.4279
logFC AURKB ([7]; AURKB Q96GD4): −0.4883
logFC of AURKB (Q96GD4) [7]: −0.4883
logFC [8]: −0.6434
logFC STK17A [8]: −0.6434
logFC AAK1 ([9]; AAK1 (Q2M218-1), experiment wp088, down): −0.3482
logFC AAK1 ([9]; AAK1 (Q2M218-1), experiment wp164, down): −0.379
logFC AAK1 ([9]; AAK1, accession Q2M218-1, experiment wp088, direction of change down): −0.3482
logFC AAK1 ([9]; AAK1, accession Q2M218-1, experiment wp164, direction of change down): −0.379
